# According to patent US20250387351A1 (SpringWorks Therapeutics, Inc, priority 2024, published 2025):
# Tests used:
# [1] = tested on: NF1-associated inoperable plexiform neurofibromas (PNs); assay: Phase 2b trial: response of target PN by BICR volumetric MRI per REiNS criteria; format: in vivo, human; details: for Confirmed Objective Response Rate per REiNS criteria by BICR, n (%): 24-cycle treatment phase, BSA-based BID dose, 3 weeks on/1 week off; for Confirmed Partial Response, n (%): PR = ≥20% reduction in PN volume; for DoR ≥12 months: Kaplan-Meier based, data cut-off September 2023
# Experimental: Participants were screened (assessed for eligibility as described below). […] The median age was 34.5 years (range 18 to 69 years); 85% were white and 64% were female. […] The most commonly reported morbidities were pain (90%) and disfigurement or major deformity (52%).
# The median age was 10 years (range 2 to 17 years); 66% were white and 54% were female. […] The most commonly reported morbidities were pain (70%) and disfigurement or major deformity (50%).
# Study treatment was administered orally at a twice daily (BID) dose specified in the table below. Dosing was on a 28-day Cycle (4-week course) with a 3 week on/1 week off schedule. The treatment period will last for up to 24 Cycles followed by a 30-day Safety Follow-Up period.
# A partial response was defined as PN decrease ≥20% compared to baseline using centrally read MRI volumetric analysis.
# The major efficacy outcome measure was confirmed objective response rate (ORR), defined as the percentage of patients with complete response (disappearance of the target PN) or confirmed partial response (≥20% reduction in PN volume confirmed at a subsequent tumor assessment within 2-6 months during the 24-cycle treatment phase). Responses were assessed by blinded independent central review (BICR) using volumetric magnetic resonance imaging (MRI) analysis per Response Evaluation in Neurofibromatosis and Schwannomatosis (REiNS) criteria. A secondary efficacy objective was to determine the duration of response for patients who achieved a confirmed objective response.
# [2] = Pharmacokinetic parameters and characteristics of mirdametinib (Table A); format: in vivo, human
# [3] = geometric least squares mean ratio, food effect
smiles,measurement,setting,value
"O=C(NOC[C@H](O)CO)c1ccc(F)c(F)c1Nc1ccc(I)cc1F (single isomer, unassigned) [mirdametinib]","Confirmed Complete Response, n (%)",[1]; Adult (N = 58),0 n (%)
same,"Confirmed Objective Response Rate per REiNS criteria by BICR, n (%)",[1]; Adult (N = 58),24 (41) n (%)
same,"Confirmed Partial Response, n (%)",[1]; Adult (N = 58),24 (41) n (%)
same,DoR ≥12 months,[1]; Adult responders,18 (75%)
same,"Confirmed Complete Response, n (%)",[1]; Pediatric (N = 56),0 n (%)
same,"Confirmed Objective Response Rate per REiNS criteria by BICR, n (%)",[1]; Pediatric (N = 56),29 (52) n (%)
same,"Confirmed Partial Response, n (%)",[1]; Pediatric (N = 56),29 (52) n (%)
same,DoR ≥12 months,[1]; Pediatric responders,22 (76%)
same,median time to onset of response,[1]; adult cohort (range: 4.0 months to 19.0 months),7.8 months
same,ORR also considering confirmed objective responses after cycle 24,"[1]; adults (95% CI: 32, 59)",45%
same,median time to onset of response,[1]; pediatric cohort (range: 4.1 months to 18.8 months),7.9 months
same,ORR also considering confirmed objective responses after cycle 24,"[1]; pediatric patients (95% CI: 40, 67)",54%
same,Tmax [median (range)],[2]; Capsule,Capsule: 1.08 (0.00-4.17) hours post dose
same,Excretion: radioactivity in feces,[2]; In feces,In feces: 27%
same,Excretion: radioactivity in urine,[2]; In urine,In urine: 68%
same,Excretion: unchanged mirdametinib in urine,[2]; In urine,In urine: 0.7%
same,Excretion: unchanged mirdametinib in urine and feces,[2]; In urine and feces,In urine and feces: 9%
same,Tmax [median (range)],[2]; Tablet,Tablet: 0.83 (0.42-3.02) hours post dose
same,Food effect [GMR % (90% CI)] AUCinf,[2]; [3],"93% (90%, 96%)"
same,Food effect [GMR % (90% CI)] Cmax,[2]; [3],"57% (54%, 61%)"
same,Time to steady-state,[2]; in vivo,Approximately 6 days
